{
  "source": "ChEMBL document CHEMBL5608164",
  "about": "“Targeting kelch-like (KLHL) proteins: achievements, challenges and perspectives” (Eur J Med Chem, 2024)",
  "key": {"[1]": {"target": "T1, Kelch-like protein 20 (Homo sapiens, UniProt Q9Y2M5)", "T1 sequence (Q9Y2M5 whole entry)": "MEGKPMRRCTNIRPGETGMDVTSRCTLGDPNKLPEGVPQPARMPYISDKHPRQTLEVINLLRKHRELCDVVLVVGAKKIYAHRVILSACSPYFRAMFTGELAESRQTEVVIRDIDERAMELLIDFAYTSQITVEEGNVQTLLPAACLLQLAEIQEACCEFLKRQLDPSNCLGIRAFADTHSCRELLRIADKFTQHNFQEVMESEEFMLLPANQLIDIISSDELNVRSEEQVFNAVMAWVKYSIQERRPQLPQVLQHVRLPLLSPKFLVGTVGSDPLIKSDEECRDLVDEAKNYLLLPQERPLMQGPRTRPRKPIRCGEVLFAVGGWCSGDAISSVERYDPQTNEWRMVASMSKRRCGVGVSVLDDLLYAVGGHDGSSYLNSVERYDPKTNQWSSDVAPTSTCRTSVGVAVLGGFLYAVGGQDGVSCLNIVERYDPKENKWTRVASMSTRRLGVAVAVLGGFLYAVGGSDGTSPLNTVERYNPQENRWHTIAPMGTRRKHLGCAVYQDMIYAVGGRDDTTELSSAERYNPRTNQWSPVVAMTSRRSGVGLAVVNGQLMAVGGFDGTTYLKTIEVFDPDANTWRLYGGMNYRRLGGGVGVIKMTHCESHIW", "assay": "Binding affinity to KLHL20 (unknown origin) assessed as dissociation constant by fluorescence polarization assay"}, "[2]": {"target": "T2, Kelch-like protein 12 (Homo sapiens, UniProt Q53G59)", "T2 sequence (Q53G59 whole entry)": "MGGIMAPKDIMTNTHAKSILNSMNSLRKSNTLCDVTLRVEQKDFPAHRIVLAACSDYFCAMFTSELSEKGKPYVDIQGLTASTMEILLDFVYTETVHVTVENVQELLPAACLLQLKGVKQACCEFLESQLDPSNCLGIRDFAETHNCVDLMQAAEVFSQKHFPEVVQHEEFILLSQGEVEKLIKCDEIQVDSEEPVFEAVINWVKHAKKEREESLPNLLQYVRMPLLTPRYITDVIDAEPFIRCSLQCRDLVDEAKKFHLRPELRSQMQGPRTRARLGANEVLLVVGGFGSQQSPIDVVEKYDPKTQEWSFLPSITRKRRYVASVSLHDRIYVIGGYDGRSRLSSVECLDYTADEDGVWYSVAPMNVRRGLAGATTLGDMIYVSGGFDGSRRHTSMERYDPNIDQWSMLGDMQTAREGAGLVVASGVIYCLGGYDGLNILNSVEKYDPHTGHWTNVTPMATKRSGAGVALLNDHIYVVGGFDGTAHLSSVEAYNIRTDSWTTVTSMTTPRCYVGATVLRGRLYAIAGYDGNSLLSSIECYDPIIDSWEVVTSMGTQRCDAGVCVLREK", "assay": "Binding affinity to KLHL12 (unknown origin) extracted from Escherichia coli BL21 Gold (DE3) assessed as dissociation constant by fluorescence polarization assay"}, "[3]": {"target": "T2, Kelch-like protein 12", "assay": "Binding affinity to KLHL12 (unknown origin) assessed as inhibition constant"}, "[4]": {"target": "Keap1/Nrf2 (Homo sapiens, UniProt Q14145)", "sequence (Q16236 whole entry)": "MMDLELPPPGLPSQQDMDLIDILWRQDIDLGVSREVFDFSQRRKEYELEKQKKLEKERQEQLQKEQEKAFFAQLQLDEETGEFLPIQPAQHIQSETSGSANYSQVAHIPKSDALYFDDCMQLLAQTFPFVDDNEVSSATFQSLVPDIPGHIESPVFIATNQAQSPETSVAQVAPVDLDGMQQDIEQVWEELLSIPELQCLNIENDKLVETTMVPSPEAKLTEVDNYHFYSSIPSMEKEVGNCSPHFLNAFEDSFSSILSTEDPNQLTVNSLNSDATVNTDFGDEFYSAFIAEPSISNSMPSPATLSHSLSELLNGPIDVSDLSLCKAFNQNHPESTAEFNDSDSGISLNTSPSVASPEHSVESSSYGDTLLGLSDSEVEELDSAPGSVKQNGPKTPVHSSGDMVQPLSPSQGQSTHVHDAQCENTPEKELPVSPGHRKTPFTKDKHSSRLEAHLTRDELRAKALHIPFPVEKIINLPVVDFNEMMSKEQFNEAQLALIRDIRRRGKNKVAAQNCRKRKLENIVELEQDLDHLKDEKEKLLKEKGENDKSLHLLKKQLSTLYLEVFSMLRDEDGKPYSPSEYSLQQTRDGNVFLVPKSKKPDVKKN", "sequence (Q14145 whole entry)": "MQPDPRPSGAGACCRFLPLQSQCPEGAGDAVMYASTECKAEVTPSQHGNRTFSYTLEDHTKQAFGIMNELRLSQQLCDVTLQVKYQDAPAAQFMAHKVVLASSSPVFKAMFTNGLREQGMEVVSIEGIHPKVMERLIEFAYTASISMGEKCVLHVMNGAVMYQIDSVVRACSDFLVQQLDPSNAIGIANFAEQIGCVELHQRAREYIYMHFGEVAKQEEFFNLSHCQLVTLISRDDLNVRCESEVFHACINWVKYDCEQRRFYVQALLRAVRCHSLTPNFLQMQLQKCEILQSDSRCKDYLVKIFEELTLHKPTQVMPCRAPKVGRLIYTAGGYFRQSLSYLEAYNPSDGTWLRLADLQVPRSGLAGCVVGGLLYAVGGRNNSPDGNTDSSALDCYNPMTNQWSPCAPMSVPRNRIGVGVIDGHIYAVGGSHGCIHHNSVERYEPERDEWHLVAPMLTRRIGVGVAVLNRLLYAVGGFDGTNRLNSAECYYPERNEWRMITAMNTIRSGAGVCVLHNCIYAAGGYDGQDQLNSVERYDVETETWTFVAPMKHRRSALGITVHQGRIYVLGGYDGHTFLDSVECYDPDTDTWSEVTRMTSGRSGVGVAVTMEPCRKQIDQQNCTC", "assay": "Inhibition of Keap1-Nrf2 protein-protein interaction (unknown origin) by fluorescence polarization assay"}, "[5]": {"assay": "Inhibition of human Kelch-like protein extracted from Escherichia coli"}, "[6]": {"target": "T3, Kelch-like protein 3 (Homo sapiens, UniProt Q9UH77)", "T3 sequence (Q9UH77 whole entry)": "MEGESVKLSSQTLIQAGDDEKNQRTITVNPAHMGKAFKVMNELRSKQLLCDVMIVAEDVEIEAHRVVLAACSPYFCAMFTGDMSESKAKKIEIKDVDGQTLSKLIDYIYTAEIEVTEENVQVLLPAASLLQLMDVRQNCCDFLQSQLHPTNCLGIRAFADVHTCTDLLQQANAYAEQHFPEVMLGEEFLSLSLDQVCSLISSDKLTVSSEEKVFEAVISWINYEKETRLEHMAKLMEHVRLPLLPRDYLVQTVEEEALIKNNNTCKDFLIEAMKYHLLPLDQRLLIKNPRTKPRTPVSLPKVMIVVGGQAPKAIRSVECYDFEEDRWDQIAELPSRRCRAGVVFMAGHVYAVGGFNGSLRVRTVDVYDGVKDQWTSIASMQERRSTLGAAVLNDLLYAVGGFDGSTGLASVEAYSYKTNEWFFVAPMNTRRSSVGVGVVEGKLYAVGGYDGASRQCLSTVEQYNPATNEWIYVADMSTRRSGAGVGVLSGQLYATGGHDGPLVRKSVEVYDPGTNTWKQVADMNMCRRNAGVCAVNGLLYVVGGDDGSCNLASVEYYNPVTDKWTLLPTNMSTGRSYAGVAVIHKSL", "assay": "Binding affinity to KLHL3 (unknown origin) assessed as dissociation constant by fluorescence polarization assay"}},
  "note": "Starred links: 1 amine or outer side, 2 acyl side, 3 side chain; linkers in the order of their positions; H or OH if unused. Positions of bridges follow the written chain, without caps; N, C: chain ends. Residues, ends and D or L forms follow the SMILES beside them. mXylylene = c1cc(C[*:1])cc(C[*:2])c1",
  "data": [
    {"molecule": "CC(C)C[C@@H]1NC(=O)[C@H](CC(=O)O)NC(=O)[C@@H]2CCCN2C(=O)[C@@H](N)CSCc2cccc(c2)CSC[C@@H](C(N)=O)NC1=O", "note": "(H-CPDLC-NH2; linker 1-5 via mXylylene)", "values": [
      {"measurement": "Kd", "setting": "[1]", "value": 0.6, "unit": "µM"}
    ]},
    {"molecule": "H-PGAPPGRDLASVP-OH", "values": [
      {"measurement": "Kd", "setting": "[2]", "value": 15, "unit": "µM"},
      {"measurement": "Ki", "setting": "[3]", "value": 21, "unit": "µM"}
    ]},
    {"molecule": "Ac-DPSTGEL-OH", "values": [
      {"measurement": "IC50", "setting": "[4]", "value": 34.4, "unit": "µM"}
    ]},
    {"molecule": "CC(C)C[C@H](NC(=O)[C@H](Cc1ccccc1)NC(=O)[C@H](CCC(=O)O)NC(=O)CNC(=O)[C@@H](NC(=O)[C@H](CCC(=O)O)NC(=O)[C@H](CCC(=O)O)NC(=O)[C@H](CC(=O)O)NC(=O)[C@@H](N)CC(C)C)[C@@H](C)O)C(=O)O", "values": [
      {"measurement": "IC50", "setting": "[5]", "value": 0.02, "unit": "µM"}
    ]},
    {"molecule": "H-EPEEPEADQHQ-OH", "values": [
      {"measurement": "Kd", "setting": "[6]", "value": 0.69, "unit": "µM"}
    ]}
  ]
}
